Assay results reported in patent US12384777B2 (Tay Therapeutics Limited, priority 2019, dated 2025).

Legend:
human liver hepatocytes = experiment: Intrinsic clearance in human liver hepatocytes; format: in vitro ADME; conditions: human cryopreserved hepatocytes, 0.5 μM test compound
Method: Vials of human cryopreserved hepatocytes, supplied by Life Technologies, were thawed according to manufacturer's instructions and cells re-suspended in Williams Medium E (WME) containing cell maintenance supplement pack (CM4000, Life Technologies). Hepatocytes were incubated in suspension (0.5 million cells/mL) in 48 well non-collagen coated cell culture plates for 10 min at 37° C., 5% CO2. Upon addition of an equal volume of supplemented WME containing 1 μM test compound, an aliquot of incubation solution was removed to acetonitrile containing internal standard (final concentration 0.5 μM test compound and a cell density of 0.25 million cells/mL). Similarly, aliquots were removed at 3, 6, 9, 15, 30, 45, 60, 90 and 120 min. 100 μL of 80:20 water:acetonitrile was added to all samples and the analysis plate was centrifuged for 10 min at RT prior to injection and analysis of samples by UPLC-MS/MS. The response (area ratio of test compound to internal standard) was plotted against time using an exponential decay model from which rate of disappearance was calculated.

BRD4 BD1 = BRD4 BD1 (Homo sapiens (Human), UniProt O60885); experiment: Bromodomain binding assay (T7 phage display, qPCR), BRD4 BD1; conditions: read-out: BRD4 BD1 Kd
Method: T7 phage strains displaying bromodomains were grown in parallel in 24-well blocks in an E. coli host derived from the BL21 strain. E. coli were grown to log-phase and infected with T7 phage from a frozen stock (multiplicity of infection=0.4) and incubated with shaking at 32° C. until lysis (90-150 min). The lysates were centrifuged (5,000×g) and filtered (0.2 μm) to remove cell debris. Streptavidin-coated magnetic beads were treated with biotinylated small molecule or acetylated peptide ligands for 30 min at RT to generate affinity resins for bromodomain assays. The ligated beads were blocked with excess biotin and washed with blocking buffer (SeaBlock (Pierce), 1% BSA, 0.05% Tween 20, 1 mM DTT) to remove unbound ligand and to reduce non-specific phage binding. Binding reactions were assembled by combining bromodomains, ligated affinity beads, and test compounds in 1× binding buffer (16% SeaBlock, 0.32×PBS, 0.02% BSA, 0.04% Tween 20, 0.004% Sodium azide, 7.9 mM DTT). Test compounds were prepared as 1000× stocks in 100% DMSO and subsequently diluted 1:25 in MEG. The compounds were then diluted directly into the assays such that the final concentrations of DMSO and MEG were 0.1% and 2.4%, respectively. All reactions were performed in polypropylene 384-well plates in a final volume of 0.02 ml. The assay plates were incubated at RT with shaking for 1 hr and the affinity beads were washed with wash buffer (1×PBS, 0.05% Tween 20). The beads were then re-suspended in elution buffer (1×PBS, 0.05% Tween 20, 2 μM non-biotinylated affinity ligand) and incubated at RT with shaking for 30 min. The bromodomain concentration in the eluates was measured by quantitative polymerase chain reaction (qPCR).
An 11-point 3-fold serial dilution of each test compound was prepared in 100% DMSO at 1000× final test concentration. All compounds were distributed by acoustic transfer (non-contact dispensing) in 100% DMSO. The compounds were then diluted directly into the assays such that the final concentration of DMSO was 0.09%. Most dissociation constants were determined using a compound top concentration=10,000 nM. If the initial dissociation constant determined was <0.169 nM (the lowest concentration tested), the measurement was repeated with a serial dilution starting at a lower top concentration.
The same bromodomain assay procedure as that outlined above was used. Example compounds were screened at 30 times their Kd, and results for primary screen binding interactions are reported as ‘% Ctrl’, where lower numbers indicate stronger hits in the matrix.

| SMILES | Intrinsic clearance, % Liver Blood Flow (human liver hepatocytes) [% Liver Blood Flow] | Kd (BRD4 BD1) [nM] |
| --- | --- | --- |
| COc1ccc(Oc2cn(C)c(=O)cc2-c2cn(C)c(=O)c3[nH]ccc23)cc1 [Example 25, 4-(5-(4-methoxyphenoxy)-1-methyl-2-oxo-1,2-dihydropyridin-4-yl)-6-methyl-1,6-dihydro-7H-pyrrolo[2,3-c]pyridin-7-one] | 38 | 10 to 100 |
| COC1CCC(Oc2ccc(O)cc2-c2cn(C)c(=O)c3[nH]ccc23)CC1 (stereo not drawn) [Example 12, 4-(5-hydroxy-2-((4-methoxycyclohexyl)oxy)phenyl)-6-methyl-1,6-dihydro-7H-pyrrolo[2,3-c]pyridin-7-one] | 82 | ≤ 10 |
| Cn1cc(-c2ncnn2Cc2ccccc2)c2cc[nH]c2c1=O [Example 16, 4-(1-benzyl-1H-1,2,4-triazol-5-yl)-6-methyl-1,6-dihydro-7H-pyrrolo[2,3-c]pyridin-7-one] |  | 100 to 1000 |
| COc1cccc(Oc2cn(C)c(=O)cc2-c2cn(C)c(=O)c3[nH]ccc23)c1 [Example 23, 4-(5-(3-methoxyphenoxy)-1-methyl-2-oxo-1,2-dihydropyridin-4-yl)-6-methyl-1,6-dihydro-7H-pyrrolo[2,3-c]pyridin-7-one] | 38 | 10 to 100 |
| Cn1cc(-c2nccn2Cc2ccccc2)c2cc[nH]c2c1=O [Example 15, 4-(1-benzyl-1H-imidazol-2-yl)-6-methyl-1,6-dihydro-7H-pyrrolo[2,3-c]pyridin-7-one] |  | 100 to 1000 |
| Cn1ccc(-c2cn(C)c(=O)c3[nH]ccc23)c(Oc2cccc(O)c2)c1=O [Example 33, 4-(3-(3-hydroxyphenoxy)-1-methyl-2-oxo-1,2-dihydropyridin-4-yl)-6-methyl-1,6-dihydro-7H-pyrrolo[2,3-c]pyridin-7-one] | <34 | ≤ 10 |
| COc1ccccc1Oc1c(-c2cn(C)c(=O)c3[nH]ccc23)ccn(C)c1=O [Example 30, 4-(3-(2-methoxyphenoxy)-1-methyl-2-oxo-1,2-dihydropyridin-4-yl)-6-methyl-1,6-dihydro-7H-pyrrolo[2,3-c]pyridin-7-one] | <34 | 10 to 100 |
| CCCOc1ccc(O)cc1-c1cn(C)c(=O)c2[nH]ccc12 [Example 9, 4-(5-hydroxy-2-propoxyphenyl)-6-methyl-1,6-dihydro-7H-pyrrolo[2,3-c]pyridin-7-one] | 95 | 10 to 100 |
| COc1ccc(Oc2c(-c3cn(C)c(=O)c4[nH]ccc34)ccn(C)c2=O)cc1 [Example 34, 4-(3-(4-methoxyphenoxy)-1-methyl-2-oxo-1,2-dihydropyridin-4-yl)-6-methyl-1,6-dihydro-7H-pyrrolo[2,3-c]pyridin-7-one] | <34 | 10 to 100 |
| Cn1cc(-c2ccn(C)c(=O)c2Oc2cccc(O)c2)ccc1=O [Example 37, 3′-(3-hydroxyphenoxy)-1,1′-dimethyl-[3,4′-bipyridine]-2′,6(1H,1′H)-dione] |  | 100 to 1000 |
| Cn1cc(-c2cc(=O)n(C)cc2Oc2cccc(O)c2)ccc1=O [Example 29, 5′-(3-hydroxyphenoxy)-1,1′-dimethyl-[3,4′-bipyridine]-2′,6(1H,1′H)-dione] | <34 | 10 to 100 |
| Cn1cc(-c2ccn(C)c(=O)c2Oc2ccccc2O)ccc1=O [Example 36, 3′-(2-hydroxyphenoxy)-1,1′-dimethyl-[3,4′-bipyridine]-2′,6(1H,1′H)-dione] |  | 100 to 1000 |
| Cn1ccc(-c2cn(C)c(=O)c3[nH]ccc23)c(Oc2ccccc2O)c1=O [Example 31, 4-(3-(2-hydroxyphenoxy)-1-methyl-2-oxo-1,2-dihydropyridin-4-yl)-6-methyl-1,6-dihydro-7H-pyrrolo[2,3-c]pyridin-7-one] | <34 | 10 to 100 |
| Cn1cc(-c2scnc2Cc2ccccc2)c2cc[nH]c2c1=O [Example 17, 4-(4-benzylthiazol-5-yl)-6-methyl-1,6-dihydro-7H-pyrrolo[2,3-c]pyridin-7-one] |  | 10 to 100 |
| Cn1cc(-c2cc(=O)n(C)cc2Oc2ccc(O)cc2)ccc1=O [Example 28] | <34 | 100 to 1000 |
| Cn1cc(Cc2ccccc2)c(-c2cn(C)c(=O)c3[nH]ccc23)cc1=O [Example 13, 4-(5-benzyl-1-methyl-2-oxo-1,2-dihydropyridin-4-yl)-6-methyl-1,6-dihydro-7H-pyrrolo[2,3-c]pyridin-7-one] | 34 | 100 to 1000 |
| Cn1cc(Oc2ccc(O)cc2)c(-c2cn(C)c(=O)c3[nH]ccc23)cc1=O [Example 26, 4-(5-(4-hydroxyphenoxy)-1-methyl-2-oxo-1,2-dihydropyridin-4-yl)-6-methyl-1,6-dihydro-7H-pyrrolo[2,3-c]pyridin-7-one] | <34 | 10 to 100 |
| Cn1ccc(-c2cn(C)c(=O)c3[nH]ccc23)c(Oc2ccc(O)cc2)c1=O [Example 35, 4-(3-(4-hydroxyphenoxy)-1-methyl-2-oxo-1,2-dihydropyridin-4-yl)-6-methyl-1,6-dihydro-7H-pyrrolo[2,3-c]pyridin-7-one] |  | 10 to 100 |
| Cn1cc(Oc2ccccc2O)c(-c2cn(C)c(=O)c3[nH]ccc23)cc1=O [Example 22, 4-(5-(2-hydroxyphenoxy)-1-methyl-2-oxo-1,2-dihydropyridin-4-yl)-6-methyl-1,6-dihydro-7H-pyrrolo[2,3-c]pyridin-7-one] | <34 | 100 to 1000 |
| Cn1cc(-c2ccnn2Cc2ccccc2)c2cc[nH]c2c1=O [Example 14, 4-(1-benzyl-1H-pyrazol-5-yl)-6-methyl-1,6-dihydro-7H-pyrrolo[2,3-c]pyridin-7-one] |  | 100 to 1000 |
| COc1ccc(Oc2cn(C)c(=O)cc2-c2ccc(=O)n(C)c2)cc1 [Example 27, 5′-(4-methoxyphenoxy)-1,1′-dimethyl-[3,4′-bipyridine]-2′,6(1H,1′H)-dione] | <34 | 100 to 1000 |
| Cn1cc(-c2scnc2Oc2ccccc2O)ccc1=O [Example 21, 5-(4-(2-hydroxyphenoxy)thiazol-5-yl)-1-methylpyridin-2(1H)-one] |  | 100 to 1000 |
| Cn1cc(-c2ccn(C)c(=O)c2Oc2ccc(O)cc2)ccc1=O [Example 38, 3′-(4-hydroxyphenoxy)-1,1′-dimethyl-[3,4′-bipyridine]-2′,6(1H,1′H)-dione] |  | 100 to 1000 |
| Cn1cc(-c2scnc2Oc2ccccc2O)c2cc[nH]c2c1=O [Example 19, 4-(4-(2-hydroxyphenoxy)thiazol-5-yl)-6-methyl-1,6-dihydro-7H-pyrrolo[2,3-c]pyridin-7-one] |  | 100 to 1000 |
| COc1cccc(Oc2c(-c3cn(C)c(=O)c4[nH]ccc34)ccn(C)c2=O)c1 [Example 32, 4-(3-(3-methoxyphenoxy)-1-methyl-2-oxo-1,2-dihydropyridin-4-yl)-6-methyl-1,6-dihydro-7H-pyrrolo[2,3-c]pyridin-7-one] | <34 | 10 to 100 |
| Cn1cc(-c2cc(O)ccc2OC2CCCCC2)c2cc[nH]c2c1=O [Example 11, 4-(2-(cyclohexyloxy)-5-hydroxyphenyl)-6-methyl-1,6-dihydro-7H-pyrrolo[2,3-c]pyridin-7-one] | 97 | ≤ 10 |
